These results are taken from US9815849B2, “Compositions and methods for treating leukemia” (Dana-Farber Cancer Institute, Inc., priority 2010, dated 2017).

Data set [1] deals with AML lines. Put plainly: BrdU cell cycle analysis and apoptosis measurement in AML lines. It is filed as cell-based. The settings on record: all tested AML lines. As for the experimental part:
BrdU incorporation assays were performed according to the manufacturer's protocol (BD, APC BrdU Flow Kit, #552598), where cells were pulsed with BrdU for 30 min. Cells were co-stained with 7-AAD or DAPI for DNA content measurement. For all conditional shRNA experiments, the analysis was gated on shRNA+/dsRed+ cell populations. Annexin V staining for apoptosis was performed according to manufacturer's protocol (BD Biosciences, APC Annexin V, #550475). In FIG. 4e, Annexin V gating was performed on live cells (FSC/SCC) and dsRed+/shRNA+ population, to ensure a clear readout of shRNA effects. […] All analyses were performed using Flowjo software.

Data set [2] relates to Myc. The experiment in a line: Myc levels in MEF or G1E cells. The data set is classed as cell-based, mouse. The method, then: (§1) RNA was prepared using Trizol® reagent (Invitrogen, Carlsbad, Calif.). cDNA synthesis was performed using gScript™ cDNA SuperMix (Quanta Biosciences, Gaithersburg, Md., #101414-106). Quantitative PCR (qPCR) analysis was performed on an ABI™ 7900HT with Sybr green (ABI, Carlsbad, Calif., #4364344). All signals were quantified using the delta-Ct method. All signals were normalized to the levels of GAPDH.

The subject of data set [3] is Hoxa7, Hoxa9, Meis1. The experiment in a line: RT-qPCR of direct MLL-AF9 target genes. The settings on record: JQ1 treatment of leukemia cells. It is filed as cell-based, mouse.
From the text: FIGS. 30A-30C show the broadly overlapping transcriptional effects elicited upon suppressing Brd4, Myb, and MLL-AF9 with downregulation of Myc upon suppressing any of the three factors. FIG. 30A includes GSEA plots evaluating transcriptional signatures downstream of MLL-AF9 and Myb. […] The 500 gene cutoff corresponds to a Log2 fold-change of −1.17 for Myb and −1.77 for MLL-AF9. FIG. 30B includes a heat map representation of Myc expression in the indicated microarray replicates. Log2 fold-change and adj.P.Val were calculated using Limma algorithm, implemented using Bioconductor. FIG. 30C includes a graph showing RT-qPCR results. […] Error bars represent s.e.m.
as §1

The nature of data set [4]: Tolerability and normal hematopoiesis in healthy mice after 20 days of JQ1. It is filed as in vivo, C57BL/6 mice. From the text: Peripheral blood was collected by submandibular bleeding and analyzed using a Hemavet 950 analyzer (Drew Scientific). Values represent average values of 3 replicate mice; error bars indicate s.e.m.
Representative images are shown.
FIG. 17B includes graphs showing the percentage of total bone marrow cells staining for the indicated antibodies. (n=3). Error bars indicate s.e.m.
Paraffin embedded sections were stained with hematoxylin & eosin (H&E). Photographs were taken on a Nikon Eclipse 80i microscope with a Nikon Digital Sight camera using NIS-Elements F2.30 software at a resolution of 2560×1920. Using Adobe Photoshop CS2, images were re-sized and set at a resolution of 300 pixels/inch, autocontrast was applied, and unsharp mask was used to improve image clarity.

Data set [5] relates to non-AML leukemia and solid tumor cell lines. The experiment in a line: Proliferation assay of non-AML leukemia and solid tumor cell lines. The data set is classed as cell-based, human. The settings on record: other tested non-AML leukemia and solid tumor cell lines.
Description: (§2) Proliferation assays were performed by counting the increase in viable cell number over seventy-two hours. Dead cells were excluded by incubating with propidium iodide (PI). Cell concentration measurements were performed on a Guava Easycyte (Millipore, Billerica, Mass.), gating only viable cells using forward/side scatter/PI-cells. Proliferation rate was calculated using the equation: ln(cell concentration72 h/cell concentration0 h)/72. Relative proliferation rate was calculated by normalizing to rate of DMSO-treated cells.
For data set [6], the system named is primary MLL-rearranged pediatric leukemias. The experiment in a line: Pediatric primary leukemia sample analysis (WST-1, 72 h). The data set is classed as cell-based, human. The settings on record: 3/3 tested primary MLL-rearranged pediatric leukemias. From the text:
Diagnostic bone marrow samples were collected under institutional review board-approved protocols from newly diagnosed children with acute leukemia. Informed consent was obtained in accordance with the Helsinki protocol. At the time of collection, primary leukemic cells were enriched by density centrifugation using Ficoll-Paque PLUS (GE Healthcare, Piscataway, N.J.) and subsequently stored in liquid nitrogen. Vials of cryopreserved cells were thawed, resuspended in media, and live leukemic cells were enriched by density centrifugation. Cells were maintained in supplemented media with 20% fetal bovine serum. All leukemia cell cultures were incubated at 37° C. in 5% CO2.
WST-1 assays were performed in triplicate.

In data set [7] the test system is MLL-AF9/Nras^G12D leukemia. The experiment in a line: MLL-AF9/NrasG12D leukemia transplant model, JQ1 treatment. The data set is classed as in vivo, mice. The text has this: FIG. 12A includes bioluminescent images of mice administered doxycycline upon disease onset, i.e., six days post-transplant. Day zero is the first day of doxycycline administration. FIG. 12B includes a graph showing the quantification of bioluminescent imaging responses following doxycycline administration. Shown are mean values of four replicate mice. FIG. 12C includes a graph showing Kaplan-Meier survival curves of recipient mice transplanted with the indicated TRMPV-shRNA leukemia cell line. The period of doxycycline administration is indicated by an arrow. Statistical significance relative to shRNAs that target Renilla luciferase (shRen) was calculated using a Log-rank test; *p=0.0001, **p<0.0001. FIG. 12D includes flow cytometry of donor-derived (CD45.2-positive) bone marrow cells in terminally diseased doxycycline-administered mice. Gate shown includes dsRed-positive/shRNA-positive cells. FIG. 12E includes a graph showing the quantification of dsRed-positive/shRNA-positive percentage in CD45.2-positive terminal leukemia burden. […] Shown are mean values of 6 DMSO- and 7 JQ1-treated mice. p-values were calculated using a two-tailed Student's paired t-test. […] Statistical significance was calculated using a Log-rank test. […] Shown are mean values of 6 DMSO- and 7 JQ1-treated mice. p-values were calculated using a two-tailed Student's paired t-test. […]
Mice were transplanted with 1 million leukemia cells, followed by treatment initiation on day 4 (when disease becomes visible by imaging). FIG. 13B includes a graph showing quantitation of the bioluminescent images. […] Statistical significance was calculated using a Log-rank test. […] Statistical significance was calculated using a Log-rank test.
For whole body bioluminescent imaging mice were intraperitoneally injected with 50 mg/kg D-Luciferin (Goldbio, St. Louis, Mo.), and after 10 min. analyzed using an IVIS® Spectrum system (Caliper LifeSciences, Waltham, Mass.). Quantification was performed using Living Image software (Caliper LifeSciences) and standardized rectangular region of interests covering the mouse trunk and extremities. […]

Data set [8] has as its system primary AMLs. Put plainly: cells. The settings on record: Homo sapiens, read-out: IC50, growth-suppressive activity.
Description: Primary leukemic cells were obtained from peripheral blood (PB) or bone marrow (BM) aspirate samples of 12 (untreated) patients with AML at diagnosis (n=10) or at relapse (n=2). […] Mononuclear cells (MNC) were prepared using Ficoll and stored in liquid nitrogen until used. […] HL60 and MOLM13 cell lines were included as controls (German Collection of Microorganisms and Cell Cultures, DSMZ, Braunschweig, Germany).
Filters were air-dried, and the bound radioactivity was measured in a β-counter (Top-Count NXT, Packard Bioscience). All experiments were performed in triplicates.
Data set [9] deals with MLL-AF9/Nras^G12D leukemia cells. The experiment in a line: May-Grunwald/Giemsa cytospin morphology of leukemia cells. The data set is classed as cell-based, mouse. The settings on record: 100 nM JQ1, 2 days. The method, then:
50,000 cells were resuspend in 100 μl FACS buffer (5% FBS, 0.05% NaN3 in PBS) cytospun onto glass slides using Shandon Cytospin 2 Centrifuge at 500 rpm for 5 min. May-Grunwald (Sigma-Aldrich, #019K4368) and Giemsa (Sigma-Aldrich, #010M4338) stainings were performed according to manufacturer's protocols. Images were collected using a Zeiss Observer Microscope with a 40× objective.

Data set [10] relates to AML1-ETO9a/Nras^G12D/p53^−/− AML. The experiment in a line: AML1-ETO9a/NrasG12D/p53-/- AML mouse model, JQ1 treatment. It is filed as in vivo, mice. The settings on record: 50 mg/kg/d, treatment started after disease onset. The text has this: FIG. 14A is a schematic showing the experimental strategy. p53^−/− HSPCs were cotransduced with AML1-ETO9a and Luciferase-IRES-NrasG12D constructs, followed by transplantation of cells into a sublethally irradiated recipient mouse. With high-penetrance, mice succumb to AML as has been described previously (Dick, J. E., Blood 2008; 112:4793-807). Splenic leukemia material derived from moribund mice was transplanted into secondary recipient animals. […] FIG. 14B includes bioluminescent images of leukemic mice at indicated timepoints. […] Shown are mean values of 8 mice in each treatment group, error bars represent s.e.m, p-values were calculated using a two-tailed Student's paired t-test.

The test system of data set [11] is Myc. The experiment in a line: Myc RT-qPCR and Western blot in leukemia cells. It is filed as cell-based, mouse. The method, then: FIG. 20D includes a graph showing RT-qPCR results. […] FIG. 20E includes a graph showing ChIP-qPCR results. […] TSS=transcription start site. […] (n=3). […] Representative images taken at 40× objective are shown. All error bars shown represent s.e.m.
For Brd4 Western blots, 30 μg of whole cell lysate RIPA extract (25 mM Tris pH7.6, 150 mM NaCl, 1% NP-40, 1% Sodium deoxycholate, 0.1% SDS) was loaded into each lane. For Myc Western blots, cells were lysed directly in Laemmli buffer. About 50,000 cell equivalents were loaded in each lane. Protein extracts were resolved by SDS-PAGE electrophoresis and transferred to nitrocellulose for blotting.
as §1

Data set [12] deals with AML cell lines. Put plainly: cells. The settings on record: Homo sapiens, 72 h, read-out: IC50, growth-suppressive activity (proliferation rate).
Description: as §2
The subject of data set [13] is mouse MLL-fusion leukemia cells. The experiment in a line: Proliferation assay of mouse leukemia cells versus fibroblasts and G1E. It is filed as cell-based. The settings on record: as compared to fibroblasts and G1E.
Description: as §2
A short description of data set [14]: Pharmacokinetic study of (+)-JQ1 in mice (plasma, LCMS-MS). The data set is classed as in vivo. As for the experimental part: FIG. 29A includes a table of pharmacokinetic data and measured parameters. […] Data represent mean measurements and error bars indicate the standard deviation, both from triplicate independent measurements. Plasma concentrations of drug above the biologically active concentration observed in vitro (100 nM; horizontal red line) are observed for more than 10 hours by extrapolation.

The target of data set [15] is Brd4 (Mus musculus, UniProt Q9ESU6). The settings on record: MLL-AF9/Nras^G12D leukemia cells.
Description: ChIP assays were performed exactly as described (Filippakopoulos et al.). […] All results were quantified by qPCR performed using SYBR green (ABI) on an ABI 7900HT. Each IP signal was referenced to an input standard curve dilution series (IP/Input) to normalize for differences in starting cell number and for primer amplification efficiency.
The mark [16] stands for this setting: daily injections of JQ1 50 mg/kg vs vehicle.

Entries after “also recorded” stand apart in the source; their conditions may differ.

With `Cc1sc2c(c1C)C(c1ccc(Cl)cc1)=NC(CC(=O)OC(C)(C)C)c1nnc(C)n1-2` (racemic) [JQ1, tert-Butyl 2-(4-(4-chlorophenyl)-2,3,9-trimethyl-6H-thieno[3,2-f][1,2,4]triazolo[4,3-a][1,4]diazepin-6-yl)acetate], the “cell-cycle arrest and apoptosis” value in data set [1] was “universally triggered cell-cycle arrest and apoptosis”. Further, the “effect on Myc levels” value in data set [2] is “minimal effects”. Besides, the “expression of Hoxa7, Hoxa9, or Meis1” value in [3] is “does not influence expression”. Also, the “impact on normal hematopoiesis” value in data set [4] (50 or 100 mg/kg/d intraperitoneal for 20 days) was “little if any impact on normal hematopoiesis; also recorded: minimal impact on normal hematopoiesis”. In addition, the “H&E histopathology of sternal bone marrow” value in [4] (daily intraperitoneal 50 mg/kg or 100 mg/kg for 20 days) is “normal cellularity and normal mixed hematopoiesis”. The tolerability entry in data set [4] (mice) is “well-tolerated”. For the same compound, in data set [5], the “sensitivity to the compound” value is on record as “minimal sensitivity”. The “sensitivity to JQ1” value in data set [6] is on record as “highly sensitive”. The “disease progression (bioluminescent imaging)” value in data set [7] (setting [16]) is “marked delay in disease progression”. Besides, in data set [7] (setting [16]), the survival result is recorded as “significantly extended survival”. For the same compound, the “activity in established disease” value in [7] (established MLL-AF9/NrasG12D leukemia, 50 or 100 mg/kg/d) was “single-agent activity in the setting of established disease”; in data set [10], “single-agent anti-leukemia activity”. Also, the IC50 in [8] and in data set [12] was less than 500 nM throughout. Besides, in data set [9], the “cell morphology (differentiation)” value is on record as “macrophage-like appearance”. For the same compound, in [11] (250 nM JQ1, MLL-AF9/Nras^G12D leukemia cells), the “time to downregulation of Myc mRNA levels” value is no more than 60 min. The “Myc mRNA and protein levels” value in data set [11] (mouse MLL-AF9/Nras^G12D leukemia cells) was “dramatic reduction in Myc mRNA levels and Myc protein levels”. For the same compound, in data set [13], the proliferation sensitivity entry is recorded as “strikingly sensitive to sub-micromolar JQ1 concentrations”. For the same compound, the half-life result in data set [14] (in rodents) was “about one”. Moreover, in data set [15], the “focal Brd4 occupancy ~2 kilobases upstream of the Myc promoter” value is reported as “eliminated”.

`Cc1sc2c(c1C)C(c1ccc(Cl)cc1)=N[C@@H](CC(=O)OC(C)(C)C)c1nnc(C)n1-2` [(+)-JQ1, (S)-tert-Butyl 2-(4-(4-chlorophenyl)-2,3,9-trimethyl-6H-thieno[3,2-f][1,2,4]triazolo[4,3-a][1,4]diazepin-6-yl)acetate]: the “time with plasma concentration above the biologically active concentration observed in vitro (100 nM)” value in [14] (50 mg/kg intraperitoneal, by extrapolation) is listed as “more than 10 hours”. Besides, the Cmax in [14] (mouse, plasma, ip, single intraperitoneal injection 50 mg/kg, adult C1 male mice, read-out: peak plasma concentration (Cmax)) is greater than 20 µM. In [14] (mouse, plasma, ip, single intraperitoneal injection 50 mg/kg, adult C1 male mice, read-out: total drug exposure (AUC)), the AUC was greater than 20000 ng·h/mL.
